{
  "source": "patent US20080188449A1",
  "about": "“Treatment of Conditions Caused By Calcium Abnormalities” (priority 2004, published 2008)",
  "tested_on": "NFκB transactivation",
  "experiment": "κB-luciferase reporter assay (TNF-α induced)",
  "type": "cell-based",
  "description": "Having established that triptolide induced cell death is dependent upon free calcium concentration, Applicants next determined if this was also a requirement for the inhibition of NFκB transcription. HeLa cells were transiently transfected with the κB-luciferase reporter construct for 8 hours before being washed and then cultured in the presence or absence of calcium containing medium for 16 hours. Triptolide (100 nM) was pre-incubated with cells for 1 hour before addition of 15 ng/ml of TNF-α for 4 hours.\nAs an additional experiment, transcriptional activity was also assessed by site-directed calcium buffering. HeLa cells were co-transfected with the κB-luciferase plasmid as well as one of the following constructs: GFP empty vector, NES-PV-GFP, or NLS-PV-GFP and proper GFP localization was confirmed. Cells were grown in the presence of calcium for 24 hours before the addition of 100 nM triptolide and 15 ng/ml TNF-α.\nNFκB transactivation was examined using the κb-luciferase reporter construct. HeLa cells were transiently transfected and pre-treated with 0-100 nM triptolide for one hour prior to TNF-α addition. Cells were assessed for NFκB driven luciferase expression after an additional five hours of incubation, at which time TNF-α had induced transcriptional activity by approximately 15-fold in control cells. […] The results thus far support a divergence of triptolide-mediated functions: the pathway regulating growth arrest/death is more sensitive to triptolide and calcium than the mechanism leading to transcriptional repression of NFκB.\nBased upon Applicants' studies examining the concentration dependent effect of triptolide on the two measured biological endpoints, cell death and transcriptional repression, Applicants wanted to determine how modulating triptolide's structure may also discriminate between the two pathways. For cell viability assays, HeLa cells were incubated with 0, 0.1, 1, or 10 μM of each analog or triptolide for 24 hours and then counted using trypan blue dye exclusion. […] NFκB transcriptional inhibition was measured using the κB-luciferase assay as previously described following 5 hours of incubation with each analog (0-10 μM) and TNF-α addition.\nA triple κB promoter-Luciferase reporter construct was a gift of Sankar Ghosh (Yale University). HeLa cells were plated at a density of 2×10^5 in 12 well plates and transfected with 100 ng of the κB-Luciferase plasmid plus Lipofectamine 2000 (Invitrogen) for 24 hours before the addition of 100 nM triptolide for one hour and 15 ng/ml of recombinant (human) TNF-α (Roche) for an additional five hours. The transfection efficiency of HeLa was determined to be 80-90%, and all samples were normalized to protein concentration. Luciferase assays were performed using the Firefly luciferase kit as per manufacturer's protocol (Promega) and results obtained on the Wallac Victor2 1420 Multilabel Counter (Perkin Elmer).",
  "data": [
    {"molecule": "CC(C)[C@]12O[C@H]1[C@@H]1O[C@]13[C@]1(O[C@H]1C[C@H]1C4=C(CC[C@@]13C)C(=O)OC4)[C@@H]2O", "note": "[triptolide, Triptolide]", "values": [
      {"measurement": "TNF-α driven transcriptional activity of NFκB", "setting": "10 nM, 6 hours", "value": "did not inhibit"},
      {"measurement": "TNF-α driven transcriptional activity of NFκB", "setting": "25 nM, 6 hours", "value": "did not inhibit"},
      {"measurement": "suppression of NFκB transcriptional activity", "setting": "50 nM, 6 hours", "value": 20, "unit": "%"},
      {"measurement": "inhibition at 0.1 µM", "setting": "0.1 μM, 5 hours with TNF-α, analog study", "value": "> 60", "unit": "%"},
      {"measurement": "inhibition of NFκB transcriptional activity", "setting": "100 nM, 6 hours, average", "value": 60, "unit": "%"},
      {"measurement": "NFκB transactivation", "setting": "100 nM, GFP vector, NES-PV-GFP or NLS-PV-GFP co-transfected", "value": "retained the ability to suppress NFκB transactivation in all experimental conditions"},
      {"measurement": "TNF-α induced NFκB transactivation", "setting": "100 nM, presence and absence of calcium", "value": "effectively inhibited"},
      {"measurement": "NFκB transcriptional activity at higher concentration", "setting": "1 or 10 μM, 5 hours", "value": "attenuated further"}
    ]}
  ]
}
